Source: patent US12060438B2, “Cyclic peptide compounds and methods of use thereof” (MODULATION THERAPEUTICS, INC., priority 2018, dated 2024)
Entries after “also recorded” stand apart in the source; their conditions may differ. Starred links: 1 amine or outer side, 2 acyl side, 3 side chain; linkers in the order of their positions; H or OH if unused. Positions of bridges follow the written chain, without caps; N, C: chain ends. Non-standard residues stand in square brackets, D forms with d. Residues, ends and D or L forms follow the SMILES beside them. *: point of attachment. dProlinol(O-CH2CO) = O=C(COC[C@H]1CCCN1[*:1])[*:2]; N(2-Aminoethyl)Gly = O=C(CN(CCN[*:3])[*:1])[*:2]; X1 = N[C@@H](CS)C(=O)NCCCS(=O)(=O)*; Nle = CCCC[C@H](N)C(=O)O

Test system: U266 myeloma cell line
Assay: Cell death in U266 myeloma cell line (Dapi dead / Fluo-4 live staining, imaging)
Type: cell-based
Conditions: Dapi for dead cells, Fluo-4 for live cells, imaged at 6 hours, n=3, compared with Compound A (FIG. 1)
Experimental: Compound 2 was tested alongside Compound A and cell death was measured in a U266 myeloma cell line. Dapi staining was used for detection of dead cells and Fluo-4 was used for staining live cells. Cells were then imaged at 6 hours using a Cytation 5 Biotek imaging plate reader.

CCCC[C@@H]1NC(=O)CN(S(=O)(=O)CCCNC(=O)[C@@H](N)CS)CCNC(=O)[C@H](CCCCN)NC(=O)[C@H](CC(C)C)NC(=O)[C@H](CCCCN)NC(=O)[C@H](CC(C)C)NC(=O)[C@H](CCCCN)NC(=O)COC[C@H]2CCCN2C(=O)[C@H](Cc2c[nH]c3ccccc23)NC(=O)[C@H](C)NC(=O)[C@H](C(C)C)NC(=O)[C@H](C(C)C)NC1=O [Compound 2] (X1-[N(2-Aminoethyl)Gly][Nle]VVAW[dProlinol(O-CH2CO)]KLKLK; lactam 1-C)
potency (cell death): increased potency relative to Compound A; also recorded: more potency compared to Compound A
